Source: PubChem BioAssay (NCI)
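Exposure lasted 48 hours, with cells grown in 96-well plates and compounds tested at five concentrations. TGI: concentration producing complete growth inhibition.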

Key:
Experiment in all cases: NCI-60 cell line screen, 48 h
[1] = system: HOP-92 NSCLC
[2] = system: MALME-3M melanoma
[3] = system: OVCAR-8 ovarian
[4] = system: UO-31 renal
[5] = system: K-562 leukemia
[6] = system: ACHN renal
[7] = system: SK-OV-3 ovarian
[8] = system: SF-268 CNS
[9] = system: RPMI-8226 leukemia
[10] = system: OVCAR-5 ovarian
[11] = system: EKVX NSCLC
[12] = system: CAKI-1 renal
[13] = system: LOX IMVI melanoma
[14] = system: KM20L2 colon
[15] = system: M14 melanoma
[16] = system: SNB-19 CNS
[17] = system: COLO 205 colon
[18] = system: KM12 colon
[19] = system: HOP-62 NSCLC
[20] = system: SNB-78 CNS
[21] = system: TK-10 renal
[22] = system: SK-MEL-2 melanoma
[23] = system: NCI-H23 lung
[24] = system: SF-295 CNS
[25] = system: M19-MEL melanoma
[26] = system: 786-0 renal
[27] = system: NCI-H522 lung
[28] = system: NCI-H460 lung
[29] = system: NCI-H226 lung
[30] = system: SNB-75 CNS
[31] = system: HCT-15 colon
[32] = system: OVCAR-3 ovarian
[33] = system: DMS 114 small cell lung
[34] = system: HL-60(TB) leukemia
[35] = system: DLD-1 colon
[36] = system: LXFL 529 NSCLC
[37] = system: HCC-2998 colon
[38] = system: CCRF-CEM leukemia
[39] = system: HCT-116 colon
[40] = system: OVCAR-4 ovarian
[41] = system: A549 NSCLC
[42] = system: SK-MEL-5 melanoma
[43] = system: SN12C renal
[44] = system: SR leukemia
[45] = system: HT29 colon
[46] = system: DMS 273 small cell lung
[47] = system: IGROV1 ovarian
[48] = system: SK-MEL-28 melanoma
[49] = system: SF-539 CNS
[50] = system: SW-620 colon
[51] = system: RXF 393 renal
[52] = system: UACC-62 melanoma
[53] = system: U251 CNS
[54] = system: PC-3 prostate
[55] = system: MCF7 breast
[56] = system: DU-145 prostate
[57] = system: MDA-N
[58] = system: MOLT-4 leukemia
[59] = system: T-47D breast
[60] = system: UACC-257 melanoma
[61] = system: A498 renal
[62] = system: BT-549 breast
[63] = system: MDA-MB-435
[64] = system: HS 578T breast
[65] = system: MDA-MB-231 breast
[66] = system: NCI/ADR-RES ovarian

Measured: TGI

CC1=COC(=O)c2ccccc2N1
not listed: [54] | [55] | [56] | [57] | [58] | [59] | [60] | [61] | [62] | [63] | [64] | [65] | [66]
> 100 µM: all other assays above

N=C(/C=C/c1ccc(-c2cn3cc(/C=C/C(=N)N4CCCC4)ccc3n2)cc1)N1CCCC1
not listed: [13] | [14] | [20] | [25] | [33] | [35] | [36] | [38] | [45] | [46]
> 100 µM: all other assays above

O=C(CCCN1CCC2(CC1)C(=O)NC(=O)N2c1ccccc1)c1ccc(F)cc1
not listed: [5] | [14] | [20] | [25] | [33] | [35] | [36] | [46]
> 100 µM: all other assays above
